{"source": "patent US20250368963A1", "about": "“PROXIMAL-BIASED KIDNEY ORGANOIDS” (UNIVERSITY OF SOUTHERN CALIFORNIA, priority 2024, published 2025)", "key": {"[1]": {"test_system": "human iPSC-derived kidney organoid nephrons", "assay": "Whole-mount immunofluorescence quantification of organoid nephrons", "type": "cell-based"}, "[2]": {"test_system": "HNF4A-YFP control and PB organoids", "assay": "DAPT treatment of HNF4A-YFP organoids after Ly29 withdrawal", "type": "cell-based, human", "conditions": "DAPT 48 hours between days 12 and 14, control and PB conditions", "protocol": "To determine whether HNF4A^+ cell differentiation is Notch-signaling dependent, the study treated HNF4A-YFP control and PB organoids with DAPT for 48 hours between days 12 and 14, after Ly29 withdrawal (FIGS. 16E-16F). […] In DAPT conditions, YFP− structures still developed but were HNF1B^+/JAG1^+/HNF4A− (FIG. 16E), indicating Notch signaling is required for the transition from HNF1B^+ to HNF4A^+ cells, as anticipated. PB organoids contained more HNF4A^+ structures than other conditions, and controls formed more HNF4A^+ structures than DAPT-treated conditions (pvalues <0.01) (FIG. 16G)."}, "[3]": {"test_system": "E12.5 mouse kidney explants", "assay": "Mouse kidney organ culture with inhibitors, immunofluorescence", "type": "cell-based", "conditions": "mouse kidney explants cultured 48 hours with inhibitor(s)", "protocol": "Mouse kidney explants and culture: Pregnant female Swiss Webster mice were euthanized on day E12.5 of pregnancy via CO2 following appropriate University of Southern California IACUC approved protocol. Embryos were removed and placed into PBS before dissecting out kidneys for explant culture as described below. Mouse kidney organ culture: Kidneys were dissected from E12.5 embryos and cultured for 48 hours at 37° C./5% CO2 in DMEM. Treatment condition culture media was initially supplemented with 20 μM LY294002, 2 μM DAPT (Tocris 2634), or both, before 48 hours of culture, following prior studies. After culture, mouse kidney explants were prepared for immunofluorescent analyses as described below for organoids."}, "[4]": {"test_system": "kidney organoid nephrogenic cells", "assay": "Single-cell RNA-sequencing of kidney organoids", "type": "cell-based, human", "protocol": "Kidney organoid cell dissociation: Approximately 6 organoids from multiple independent wells of both untreated and treated (48 hour culture with 10 μM LY294002 between days 10 and 12) conditions were collected at differentiation days 10, 12, 14, and 18 for single-cell RNA-sequencing, from separate differentiation batches. The organoids were dissociated using Accumax (Stem Cell Technologies, 07921) at 37° C./5% CO2 for 35 minutes and pipetted twenty times with a P-1000 wide-bore pipette tip every 5 minutes. The dissociation was neutralized by using a 2× volume of AutoMACS Running Buffer (Miltenyi Biotec, 130-091-221). Cells were pelleted by centrifugation at 4° C. for 3 minutes at 300×g. After resuspending the pellet in 2 mL of AutoMACS Running Buffer, cell suspensions were strained through 40 μm strainer (VWR, 21008-949), washing the filter with an additional 1 mL AutoMACS. The flow-through was pelleted, again at 300×g in a 4° C. for 3 minutes. […]\nSPLiT-seq single-cell RNA-sequencing data collection and analyses: SPLiT-seq cell processing. […] Fixed cells were then stored at −80° C. until all samples were ready to be processed with the Evercode WT v2 single-cell RNA-sequencing platform (Parse Biosciences, ECW02030). […]"}, "[5]": {"test_system": "human iPSC-derived kidney organoids", "assay": "Bulk mRNA-sequencing of whole kidney organoids", "type": "cell-based", "protocol": "mRNA-sequencing and data analyses: Whole organoid samples (3 independent biological replicates per timepoint, per condition for differentiation days 10 and 12, and 2 replicates for differentiation days 14 and 18) were prepared and purified according to the RNeasy Mini Kit (Qiagen, 74104). Purified RNA was sent to Novogene for sequencing. Reads were aligned to the hg38 Ensembl 105 annotation using STAR version 2.7.10a. A noise-reduction filter was applied to keep genes in which the maximum count in at least one sample was greater than or equal to 10. Partek Flow version 10.0 was then used to normalize these raw feature counts following the transcripts per million (TPM) normalization method. After filtering genes with TPM values greater than or equal to 25 in at least one sample, Z-score averages were calculated and heatmaps were clustered using pheatmap. Separately, gene set enrichment analyses were performed specifically on Day 12 replicate samples by first normalizing noise-reduced feature counts using the DESeq2 median ratio method, as recommended for gene set enrichment analyses. Partek Flow version 10.0 was then subsequently used for gene set enrichment analyses. Data are deposited with GEO accession number GSE264217 and will be made publicly available as of the date of publication."}, "[6]": {"test_system": "human iPSC-derived kidney organoids", "assay": "Comparison of PI3K inhibitors on kidney organoids", "type": "cell-based", "quoted_text": "Small-molecule inhibitor screen and culture optimization: For all small molecule inhibitors used in this study, initial screens were performed on kidney organoids to determine the optimal dosage and duration of culture. […] Concentrations tested used insights from prior studies. After an ideal concentration was established, to determine optimal duration of treatment with the small molecule, separate differentiation experiments were set up with the small molecule from differentiation days 10 to 18, as well as differentiation days 12 to 18. For all optimization screens, time-course bright-field imaging was performed, and organoids were collected for whole-mount immunofluorescent analyses on differentiation day 18. […] Small-molecule inhibitor screen and culture optimization: For all small molecule inhibitors used in this study, initial screens were performed on kidney organoids to determine the optimal dosage and duration of culture. […] After an ideal concentration was established, to determine optimal duration of treatment with the small molecule, separate differentiation experiments were set up with the small molecule from differentiation days 10 to 18, as well as differentiation days 12 to 18. For all optimization screens, time-course bright-field imaging was performed, and organoids were collected for whole-mount immunofluorescent analyses on differentiation day 18."}, "[7]": {"test_system": "control and proximal-biased kidney organoids", "assay": "In vitro cisplatin injury assay", "type": "cell-based, human", "conditions": "for HNF4A/SOX9 cell state: single cisplatin-dose", "protocol": "In vitro cisplatin injury assay: For the kidney organoid cisplatin injury assay, the study adapted an approach undertaken by two recent studies. Differentiation day 18 control and proximal-biased organoids were incubated overnight (18 hrs) at 37° C./5% CO2 in TeSR-E6 supplemented with 5 μM cisplatin (Millipore Sigma, 232120). […] Uninjured organoids were cultured with DMSO vehicle. Organoids were then processed for immunofluorescent imaging and analyses. In vitro cisplatin injury assay: For the kidney organoid cisplatin injury assay, the study adapted an approach undertaken by two recent studies. Differentiation day 18 control and proximal-biased organoids were incubated overnight (18 hours) at 37° C./5% CO2 in TeSR-E6 supplemented with 5 μM cisplatin (Millipore Sigma, 232120). Organoids recovered between days 19 and 20, before another overnight culture (18 hours) between days 20 and 21 with 5 μM cisplatin. Uninjured organoids were cultured with DMSO vehicle. Organoids were then processed for immunofluorescent imaging and analyses."}, "[8]": {"test_system": "day 21 proximal-biased kidney organoids", "assay": "Single-nucleus RNA-sequencing of cisplatin-treated PB organoids", "type": "cell-based, human", "conditions": "day 21, double-dose", "protocol": "Single-nucleus preparation of kidney organoids: For single-nucleus RNA-sequencing, the same number of organoids from multiple independent wells were snap-frozen in liquid nitrogen before nuclei isolation. Briefly, organoids were transferred to a 1.7 mL low binding tube, centrifuged to form a pellet, and snap-frozen in liquid nitrogen. Flash-frozen organoids were dounced in cold Nuclei EZ Lysis Buffer (Sigma, N3408) supplemented with protease inhibitor (Roche, 05892791001). Homogenization was performed using a loose pestle and tight pestle system (Sigma, P0485) with 15 loose-dounce strokes, followed by filtration through a 200 μm strainer (pluriSelect, 43-50200). The homogenate was then subjected to an additional 5 strokes with the tight pestle and incubated on ice for 5 minutes. The suspension was filtered through a 40 μm strainer (pluriSelect, 43-50040) and centrifuged at 500×g for 5 minutes at 4° C. in a swinging-bucket centrifuge. After removing the supernatant, the nuclei pellet was resuspended in just Nuclei EZ Lysis Buffer, incubated on ice for an additional 5 minutes, and centrifuged again. […]\nSingle-nucleus processing and sequencing: Single-nucleus RNA-sequencing libraries were generated using the 10× Genomics Chromium Next GEM Single Cell Multiome reagents (PN 1000283) following the manufacturer's protocols (10× Genomics; CG000338 Rev E). Briefly, freshly prepared single-nuclei suspensions were counted on a Countess 3 FL cell counter and approximately 9,000 nuclei per condition went through 1 hour of transposition at 37° C. followed by GEM generation and barcoding on a Chromium X machine with immediate subsequent RT reaction. cDNA was generated from 7 preAmp cycles and 8 cDNA cycles. […]\nSingle-nucleus RNA-sequencing analyses: Single-nucleus RNA-sequencing data was processed using Cell Ranger (v9.0.0) and the Seurat 5.2 R package. […] Feature-barcode matrices were subsequently imported into Seurat using the Read10× function. […]"}}, "note": "“Also recorded” adds a separate entry of the source.", "data": [{"molecule": "C[C@H](NC(=O)Cc1cc(F)cc(F)c1)C(=O)N[C@H](C(=O)OC(C)(C)C)c1ccccc1", "note": "[DAPT]", "values": [{"measurement": "nephron elongation and HNF1B/HES1 upregulation", "setting": "[1]; day 12, cultured with DAPT, either with or without Ly29", "result": "did not elongate or further upregulate HNF1B; also recorded: did not upregulate HNF1B or HES1"}, {"measurement": "HNF4A-YFP", "setting": "[2]", "result": "reduced HNF4A-YFP"}, {"measurement": "Hnf4a expression", "setting": "[3]", "result": "blocked Hnf4a expression"}]}, {"molecule": "O=c1cc(N2CCOCC2)oc2c(-c3ccccc3)cccc12", "note": "[Ly29, LY294002]", "values": [{"measurement": "share of all HNF4A+ cells that originated from the PB condition", "setting": "[4]; days 12, 14, 18 integrated", "result": 72.7, "unit": "%"}, {"measurement": "share of all HNF4A+ proximal tubule precursors that originated from the PB condition", "setting": "[4]; scaled for total cell numbers", "result": 70.8, "unit": "%"}, {"measurement": "HNF1B expression upregulated", "setting": "[5]; RNA-sequencing, day 12, 48 hr treatment, vs control", "result": 2.88, "unit": "fold"}, {"measurement": "increase in JAG1 expression", "setting": "[5]; RNA-sequencing, day 12, treated days 10-12, vs control", "result": 1.78, "unit": "fold"}, {"measurement": "increase in HNF4A transcript levels", "setting": "[5]; bulk RNA-sequencing, day 18, vs controls", "result": 2.31, "unit": "fold"}, {"measurement": "increase in HNF4G transcript levels", "setting": "[5]; bulk RNA-sequencing, vs controls", "result": 1.72, "unit": "fold"}, {"measurement": "HNF4A expression at day 12", "setting": "[5]; day 12, not detected", "result": "< 1.7", "unit": "TPM"}, {"measurement": "HNF1B+ nephron size increase", "setting": "[1]; day 12 organoids, vs controls", "result": 1.64, "unit": "fold"}, {"measurement": "JAG1+ nephron size increase", "setting": "[1]; day 12 organoids, vs controls", "result": 2.36, "unit": "fold"}, {"measurement": "abundance of HNF1B within each nephron, increase", "setting": "[1]; day 12 organoids, vs controls", "result": 1.22, "unit": "fold"}, {"measurement": "sum total area of HNF4A+ organoid nephron segments, increase", "setting": "[1]; day 18, n=3 organoids, vs controls", "result": 2.83, "unit": "fold"}, {"measurement": "average size of individual HNF4A+ segments, increase", "setting": "[1]; day 18 organoids, vs controls", "result": 1.30, "unit": "fold"}, {"measurement": "total number of HNF4A+ segments per organoid, increase", "setting": "[1]; day 18 organoids, vs controls", "result": 4.02, "unit": "fold"}]}, {"molecule": "CS(=O)(=O)N1CCN(Cc2cc3nc(-c4cccc5[nH]ncc45)nc(N4CCOCC4)c3s2)CC1", "note": "[GDC-0941]", "values": [{"measurement": "efficacy relative to LY294002", "setting": "[6]; FIG. 11", "result": "slightly less efficacy than LY294002"}, {"measurement": "proximal-biasing phenotype of PI3K inhibition", "setting": "[6]; second, structurally different PI3K inhibitor", "result": "confirmed"}]}, {"molecule": "N.N.[Cl][Pt][Cl]", "note": "[cisplatin]", "values": [{"measurement": "tubular integrity and apicobasal polarity", "setting": "[7]; ATP1A1 and LAMB1 distribution, injured nephrons", "result": "loss of tubular integrity and apicobasal polarity"}, {"measurement": "SOX9 response to injury", "setting": "[7]; PB kidney organoid nephrons, double dose", "result": "activated SOX9"}, {"measurement": "correlation of HNF4A protein levels with γH2AX (r)", "setting": "[7]; cisplatin-injured PB nephrons, day 21", "result": "−0.67"}, {"measurement": "sensitivity of PB nephrons", "setting": "[7]; day 18, 5 μM, 72 hrs", "result": "sensitive"}, {"measurement": "uninterrupted tubular lumens longer in uninjured samples", "setting": "[7]; day 21 PB organoids, uninjured vs injured", "result": 2.82, "unit": "fold"}, {"measurement": "KIM1/HAVCR1 protein abundance higher in PB organoid nephrons", "setting": "[7]; day 21 following injury, PB vs control organoid nephrons", "result": 1.56, "unit": "fold"}, {"measurement": "HNF4A/SOX9 cell state", "setting": "[7]; 1 day post-injury", "result": "HNF4AHIGH/SOX9LOW"}, {"measurement": "HNF4A/SOX9 cell state", "setting": "[7]; 3 days post-injury", "result": "HNF4AMED/SOX9MED"}, {"measurement": "HNF4A/SOX9 cell state", "setting": "[7]; 6 days post-injury", "result": "HNF4ALOW/SOX9HIGH"}, {"measurement": "KIM1/HAVCR1 in HNF4A+ PB nephron cells", "setting": "[7]; two staggered doses 5 μM, assayed 3 days after initial injury, PB organoids", "result": "strong detection"}, {"measurement": "KIM1/HAVCR1 in injured control organoids", "setting": "[7]; two staggered doses 5 μM, control organoids", "result": "sparse"}, {"measurement": "HAVCR1 and SOX9 detection in injured cells", "setting": "[8]; vs uninjured", "result": "higher detection"}, {"measurement": "KRT17 detection", "setting": "[8]; proximal subset", "result": "exclusively detected in the injured population"}, {"measurement": "cells positive for injury markers that originated from the injured population", "setting": "[8]; proximal subset", "result": "approximately 75%"}]}]}
